# According to US8642801B2 (BHI Limited Partnership, priority 2003, dated 2014):
# Where a name gives a salt, the structure may show the parent alone.
# Molecular target: T1, IAPP (Homo sapiens, UniProt P10997)
# T1 construct: which is a 37 amino acid peptide, derived from a larger precursor peptide, called pro-IAPP
# T1 sequence (P10997 34-70 limits assumed): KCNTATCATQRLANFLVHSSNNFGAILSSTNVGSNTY
# Test: MS (electrospray mass spectrometry) binding assay for IAPP
# Settings: Table 3C; 20 μM Aβ peptide, 100 μM compound (so in the source)
# Source text: The ability of a therapeutic compound of the invention to inhibit an interaction between an amyloidogenic protein and a glycoprotein or proteoglycan constituent of a basement membrane can be assessed by an in vitro binding assay, such as that described in U.S. Pat. No. 5,164,295, the contents of which are hereby incorporated by reference. Alternatively, the ability of a compound to bind to an amyloidogenic protein or to inhibit the binding of a basement membrane constituent (e.g., HSPG) to an amyloidogenic protein (e.g., Aβ) can be measured using a mass spectrometry assay where soluble protein, e.g., Aβ, IAPP, β2M is incubated with the compound. A compound which binds to, e.g., Aβ, will induce a change in the mass spectrum of the protein. Exemplary protocols for a mass spectrometry assay employing Aβ and IAPP can be found in the Examples, the results of which are provided in Table 3. The protocol can readily be modified to adjust the sensitivity of the data, e.g., by adjusting the amount of protein and/or compound employed. Thus, e.g., binding might be detected for test compounds noted as not having detectable binding employing less sensitive test protocols.
# The test compounds were synthesized and screened by mass spectrometry (“MS”) assays, except for selected compounds which were purchased from a commercial source. The MS assay gives data on the ability of compounds to bind to proteins, in this example, to β-amyloid and IAPP.
# In the MS assay for Aβ40, samples were prepared as aqueous solutions (adding 20% ethanol if necessary to solubilize in water), 200 μM of a test compound and 20 μM of solubilized Aβ40, or 400 μM of a test compound and 40 μM of solubilized Aβ40. The pH value of each sample was adjusted to 7.4 (±0.2) by addition of 0.1% aqueous sodium hydroxide. The solutions were then analyzed by electrospray ionization mass spectrometry using a Waters ZQ 4000 mass spectrometer. Samples were introduced by direct infusion at a flow-rate of 25 μL/min within 2 hr. after sample preparation. The source temperature was kept at 70° C. and the cone voltage was 20 V for all the analysis. Data were processed using Masslynx 3.5 software. The MS assay gives data on the ability of compounds to bind to soluble Aβ, whereas the ThT, EM and CD assays give data on inhibition of fibrillogenesis. In Table 3, a blank box means that a value was not determined for that compound in that assay.
# The key below describes the codes used in Table 3A to quantify the binding based on the intensity of the absorption.
row,SMILES,MS binding IAPP
1,"CCNCC(O)CS(=O)(=O)O (centres unmarked) [JU, 3-(ethylamino)-2-hydroxy-1-propanesulfonic acid]",++ (40-74% binding=(++))
2,O=S(=O)([O-])CC(O)CNCc1ccccc1.[Na+] (centres unmarked) [JY],+++ (75-100% binding=(+++))
3,"CN(C)CCCCS(=O)(=O)O [LH, 4-Dimethylamino-1-butanesulfonic acid]",+ (20-39% binding=(+))
4,O=S(=O)(O)CCCCNC1CCCc2ccccc21 (centres unmarked) [LG],++ (40-74% binding=(++))

# Molecular target: T2, Aβ40 and Aβ42 peptides in plasma and brain of TgCRND8 mice (Homo sapiens, UniProt P05067)
# T2 construct: ELISA using Human Aβ40 and Aβ42 Fluorometric ELISA kits from Biosource; from tissue; host or cells: plasma and brain homogenate of TgCRND8 transgenic mice (hAPP transgene)
# Test: Short term treatment in adult transgenic CRND8 mice overexpressing βAPP: Aβ levels in plasma and brain by ELISA
# Type: in vivo, Mouse
# Settings: Brain Homogenate Vehicle Group, Day 14; TgCRND8 mice, 250 mg/kg daily
# Source text: Transgenic mice, […]8, expressing the human amyloid precursor protein (hAPP) develop a pathology resembling Alzheimer's disease. In particular, high levels of Aβ40 and Aβ 42 have been documented in the plasma and the brain of these animals at 8-9 weeks of age, followed by early accumulation of amyloid plaques similar to the senile plaques observed in AD patients. These animals also display progressive cognitive deficits that parallel the appearance of degenerative changes. See, […], et al., J. Biol. Chem. 276, 21562-70 (2001). The short term therapeutic effect of 19 compounds of the invention was studied. […] The following abbreviations are used to designate these animals from the 3rd and 4th generation backcross in the present protocol: TgCRND8-2.B6C3F1(N3); TgCRND8-2.B6C3F1(N4). Baseline animals (Group 1) consisted of naive TgCRND8-2. B6C3F1(N3) at 11±1 weeks of age. These mice were used to determine the Aβ levels in the plasma and brain of naive transgenic animals at the initiation of treatment. […] At the end of the treatment periods, plasma and perfused brains were collected for quantification of Aβ levels. […] Plasma samples were immediately frozen and stored at -80° C. pending analysis. The brains were removed, frozen, and stored at -80° C. awaiting analysis. […] Samples were spun at 15000 g for 20 minutes and the supernatants were transferred to fresh tubes. […] The tubes were vortexed for 30 seconds and frozen at -80° C. […] Samples were thawed at room temperature, sonicated at 80° C. for 15 minutes and frozen again. This cycle was repeated 3 times to ensure homogeneity and samples were returned to -80° C. pending analysis. Aβ levels were evaluated in plasma and brain samples by ELISA using Human Aβ40 and Aβ42 Fluorometric ELISA kits from Biosource (Cat. […] In short, samples were thawed at room temperature, sonicated for 5 minutes at 80° C. (sonication for brain homogenates; no sonication for plasma samples) and kept on ice. Aβ peptides were captured using 100 μl of the diluted samples to the plate and incubated without shaking at 4° C. overnight. The samples were aspirated and the wells were rinsed 4 times with wash buffer obtained from the Biosource ELISA kit. The anti-Aβ40 or anti-Aβ42 rabbit polyclonal antiserum (specific for the Aβ40 or Aβ42 peptide) was added (100 μl) and the plate was incubated at room temperature for 2 hours with shaking. The wells were aspirated and washed 4 times before adding 100 μl of the alkaline phosphatase labeled anti-rabbit antibody and incubating at room temperature for 2 hours with shaking. The plates were then rinsed 5 times and the fluorescent substrate (100 μl) was added to the plate. The plate was incubated for 35 minutes at room temperature and the plate was read using a titer plate reader at an excitation wavelength of 460 nm and emission at 560 nm Compounds were scored based on their ability to modulate levels of Aβ peptides in the plasma and the cerebral soluble/insoluble levels in the brain. Levels of Aβ observed in the plasma and brain of treated animals were normalized using values from vehicle-treated (water) or methylcellulose-treated control groups and ranked according to the strength of the pharmacological effect. Increases in the levels of Aβ peptides are indicated using “+” symbols, while decreases in the levels of Aβ peptides are indicated using “-” symbols. The strongest effects are recorded as “+++” or “- - -” while the weakest are shown as “+” or “-”.
SMILES,Brain homogenate Aβ40 Change Insoluble,Brain homogenate Aβ42 Change Insoluble,Brain homogenate Aβ42 Change Soluble
"CC(C)(CO)NCCCS(=O)(=O)O [DH, 3-(1,1-dimethyl-2-hydroxyethyl)amino-1-propanesulfonic acid]",−− (decreases of 20 to 38% are scored as “− −”),−−− (decreases of 39% or more are scored as “− − −”),−−− (decreases of 39% or more are scored as “− − −”)

# Same assay, conditions: Brain Homogenate Vehicle Group, Day 28; TgCRND8 mice, 250 mg/kg daily
SMILES,Brain homogenate Aβ40 Change Insoluble,Brain homogenate Aβ42 Change Insoluble
"CC(C)(CO)NCCCS(=O)(=O)O [DH, 3-(1,1-dimethyl-2-hydroxyethyl)amino-1-propanesulfonic acid]",− (Decreases in the levels of Aβ of 5 to 19% are scored as “−”),− (Decreases in the levels of Aβ of 5 to 19% are scored as “−”)

# Molecular target: T1, IAPP
# Test: MS (electrospray mass spectrometry) binding assay for IAPP
# Settings: Table 3B; 30 μM Aβ peptide, 150 μM compound (so in the source)
row,SMILES,MS binding IAPP
1,"CC(CCNCc1ccccc1)S(=O)(=O)[O-].[Na+] (centres unmarked) [JP, 4-(benzylamino)-2-butanesulfonic acid, sodium salt]",+++ (60-100% binding=(+++))
2,"CCNCCC(C)S(=O)(=O)O (centres unmarked) [JQ, 4-(ethylamino)-2-butanesulfonic acid, sodium salt]",+++ (60-100% binding=(+++))
3,N[C@@H](Cc1ccccc1)C(=O)NCCCS(=O)(=O)O [KN],++ (40-59% binding=(++))
4,CC(C)(C)NCCS(=O)(=O)O [KS],+++ (60-100% binding=(+++))
5,"O=S(=O)(O)CCCCNC1C2CC3CC(C2)CC1C3 (centres unmarked) [LN, 4-(2-adamantyl)amino-1-butanesulfonic acid]",+++ (60-100% binding=(+++))
6,"O=S(=O)([O-])CC(O)CNC12CC3CC(CC(C3)C1)C2.[Na+] (centres unmarked) [KB, 4-(adamantan-1-ylamino)-2-hydroxy-1-propanesulfonic acid]",+++ (60-100% binding=(+++))
7,N[C@@H](Cc1ccccc1)C(=O)NCCS(=O)(=O)O [KT],++ (40-59% binding=(++))
8,"CC(C)(C)NCC(O)CS(=O)(=O)O (centres unmarked) [JV, 3-(tert-butylamino)-2-hydroxy-1-propanesulfonic acid]",++ (40-59% binding=(++))
9,"CC(C)CCNCCC(C)S(=O)(=O)O (centres unmarked) [KH, 4-[(3-methylbutyl)amino]-2-butanesulfonic acid]",++ (40-59% binding=(++))
10,"CC(CCNC1CCCCC1)S(=O)(=O)O (centres unmarked) [KM, 4-(cyclohexylamino)-2-butanesulfonic acid]",+++ (60-100% binding=(+++))
11,"O=S(=O)(O)CCCCNC1CCCCC1 [LK, 4-(cyclohexylamino)-1-butanesulfonic acid]",++ (40-59% binding=(++))
12,"O=S(=O)(O)CC(O)CNC1C2CC3CC(C2)CC1C3 (centres unmarked) [KJ, 3-(2-adamantylamino)-2-hydroxy-1-propanesulfonic acid]",+++ (60-100% binding=(+++))

# Same assay, conditions: Table 3D; 40 μM Aβ peptide, 400 μM compound (so in the source)
row,SMILES,MS binding IAPP
1,O=S(=O)(O)CCCn1cc[n+](CCCS(=O)(=O)O)c1 [HS],− (<20%=(−))
2,O=C(O)c1ccc2[nH]c3c(c2c1)CCN(CCCS(=O)(=O)O)C3 [IU],− (<20%=(−))
3,O=S(=O)(O)CCCN/C=C\NCCCS(=O)(=O)O [HX],− (<20%=(−))
4,C[N+](C)(CCCS(=O)(=O)[O-])CCCS(=O)(=O)O [IF],− (<20%=(−))
5,O=C(O)CNCCCS(=O)(=O)O [HZ],− (<20%=(−))
6,O=[N+]([O-])c1cccc2c[n+](CCCS(=O)(=O)[O-])ccc12 [IJ],+ (20-39% binding=(+))
7,CC(=O)N(C(C)=O)c1cccc2c[n+](CCCS(=O)(=O)[O-])ccc12 [II],− (<20%=(−))
8,Nc1ccc2c(c1)CN(CCCS(=O)(=O)O)CC2 [IM],− (<20%=(−))
9,NCCCCC(NCCCS(=O)(=O)O)C(=O)O (centres unmarked) [HY],− (<20%=(−))
10,O=S(=O)(O)CCCN1CCc2c(I)cccc2C1 [IP],+ (20-39% binding=(+))
11,O=S(=O)(O)CCCCN1CCc2c([nH]c3ccc(Br)cc23)C1 [KX],+ (20-39% binding=(+))
12,O=[N+]([O-])c1ccc2[nH]c3c(c2c1)CCN(CCCCS(=O)(=O)O)C3 [KY],+ (20-39% binding=(+))
13,O=S(=O)(O)CCCN1CCc2c([nH]c3ccc(Br)cc23)C1 [IR],+ (20-39% binding=(+))
14,O=C(O)c1ccc2[nH]c3c(c2c1)CCN(CCCCS(=O)(=O)O)C3 [LA],− (<20%=(−))
15,O=S(=O)(O)CCCN1CCc2c(Br)cccc2C1 [IK],+ (20-39% binding=(+))
16,O=S(=O)([O-])CCC[n+]1ccn(CCCS(=O)(=O)O)c1 [HP],− (<20%=(−))
17,O=[N+]([O-])c1ccc2[nH]c3c(c2c1)CCN(CCCS(=O)(=O)O)C3 [IT],+ (20-39% binding=(+))
18,NCCCCCS(=O)(=O)O [LP],+++ (75-100% binding=(+++))
19,O=S(=O)(O)CCCn1cc[n+](CCCn2ccnc2)c1 [HW],− (<20%=(−))
20,O=S(=O)(O)CCCN1CCc2ccc(Br)cc2C1 [IN],+ (20-39% binding=(+))
21,COC(=O)[C@@H](Cc1ccc(I)cc1)NCCCS(=O)(=O)O [IB],+ (20-39% binding=(+))
22,[N-]=[N+]=NCCCS(=O)(=O)O [HN],− (<20%=(−))
23,O=[N+]([O-])c1ccc2c(c1)CN(CCCS(=O)(=O)O)CC2 [IL],+ (20-39% binding=(+))
24,Nc1ccc2[nH]c3c(c2c1)CCN(CCCCS(=O)(=O)O)C3 [KW],+ (20-39% binding=(+))
25,O=C(NCCCCS(=O)(=O)O)OCc1ccccc1 [KV],+ (20-39% binding=(+))
26,Nc1cccc2c1CCN(CCCS(=O)(=O)O)C2 [IH],+ (20-39% binding=(+))
